The test system of one assay is HeLa (HPV18+) cells. The assay can be described thus: Cell proliferation/viability assay, HeLa cells. The assay is classed as cell-based. The conditions noted are these: Homo sapiens, 96 h, 4 days. The gist of the method:
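Cells plated in antibiotic-free growth medium, compound added 2 h later (0.5% DMSO final) and incubated 4 days at 37 °C. Viability by CellTiter Blue (ex 530/em 590 nm) or CellTiter Glo luminescence; IC50 from four-parameter logistic fit of % inhibition.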

Assay [1] relates to platelet aggregation induced by gamma-thrombin. Nature of the assay: Gamma thrombin induced platelet aggregation assay in platelet rich plasma (PRP). The assay is classed as cell-based. The conditions noted are these: human platelet rich plasma. From the text:
The compounds of the current invention can be tested in vitro for their ability to inhibit platelet aggregation induced by gamma-thrombin as shown in Example C. Gamma-thrombin, a proteolytic product of alpha-thrombin which no longer interacts with PAR1, selectively cleaves and activates PAR4 (Soslau, G. et al., “Unique pathway of thrombin-induced platelet aggregation mediated by glycoprotein Ib”, J. Biol. Chem., 276:21173-21183 (2001)). Platelet aggregation can be monitored in a 96-well microplate aggregation assay format or using standard platelet aggregometer. […]
The ability of the compounds of the current invention to inhibit platelet aggregation induced by gamma-thrombin was tested in a 96-well microplate aggregation assay format. […] The plate was then placed into a SpcctraMax® Plus Plate Reader (Molecular Devices) at 37° C. Platelet aggregation was monitored at a wavelength of 405 nm using a kinetic analysis mode. […] Inhibition of platelet aggregation (IPA) was calculated based on the formula: % IPA=(100−100*[ODcompound−ODminimum]/[ODmaximum−ODminimum]). The IC50 value of the test compound was calculated by fitting the % IPA values to the one-site concentration response equation: Y=A+(B−A)/{1+(C/X)^D]}, using XLfit for 32 bit Excel® Version 2 Build 30 (ID Business Solutions Limited).

Molecules are shown by their SMILES.

One may read the IC50 as the concentration that inhibits the measured activity by half. A low value points to higher potency. `COc1ccc(-c2cc(C)cc3nc(OC(F)F)cnc23)cc1` [Example 6, 2-(difluoromethoxy)-5-(4-methoxyphenyl)-7-methylquinoxaline]: the IC50 was 10.6 µM in the assay with HeLa (HPV18+) cells and > 30 µM in assay [1].

The record behind these values is patent US10517870B2, “Aryl substituted bicycle heteroaryl compounds” (Bristol-Myers Squibb Company, priority 2015, dated 2019).
